Measurements: paper PMC5454376, “Molecular mechanism of Gαi activation by non-GPCR proteins with a Gα-Binding and Activating motif” (Nature Communications, 2017)
Blank lines part the entries; values can stand above or below the molecule they belong to. Where a SMILES comes first, the peptide text is derived from it. The star is where a group is joined. 6FAM = O=C1OC2(c3ccc(O)cc3Oc3cc(O)ccc32)c2cc(C(=O)*)ccc21

Tests used:
His-Gαi3 K35A = molecular target: T1, His-Gαi3 K35A (Homo sapiens, UniProt P08754, K35A); assay: Fluorescence polarization peptide binding, Gαi3 K35A; conditions: peptide 0.025 μM, pH 7.4, room temperature, mean±s.e.m., n=3–7, Fig. 4d, read-out: Kd ± SEM
T1 construct: Full-length human Gαi3 (UNIPROT entry P08754) cloned in a pET24d(+) plasmid; made in house; host or cells: E. coli BL21 Rosetta
T1 sequence (P08754 whole entry K35A): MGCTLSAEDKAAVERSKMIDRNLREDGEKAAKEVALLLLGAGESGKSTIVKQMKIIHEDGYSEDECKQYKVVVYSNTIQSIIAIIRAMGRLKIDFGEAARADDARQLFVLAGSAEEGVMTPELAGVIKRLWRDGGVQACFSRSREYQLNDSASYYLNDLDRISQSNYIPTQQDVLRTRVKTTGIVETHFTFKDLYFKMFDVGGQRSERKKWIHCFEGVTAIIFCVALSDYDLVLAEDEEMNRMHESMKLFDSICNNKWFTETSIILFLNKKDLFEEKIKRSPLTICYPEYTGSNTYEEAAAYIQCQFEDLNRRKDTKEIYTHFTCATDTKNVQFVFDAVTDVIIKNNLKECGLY
Procedure: (§1) Human Gαi3 was expressed from the same plasmid as described for the NMR studies and purified as an uncleaved His-tagged protein. […] After sonication (four cycles, with pulses lasting 20 s and with 1 min interval between pulses to prevent heating), lysates were centrifuged at 12,000g for 20 min at 4 °C. […] The buffer was exchanged for 20 mM Tris-HCl, pH 7.4, 20 mM NaCl, 1 mM MgCl2, 1 mM DTT, 10 μM GDP and 5% (v/v) glycerol using a HiTrap Desalting column (GE Healthcare). Protein samples were stored at −80 °C.
(§2) Fluorescence polarization-based peptide-binding assays
(§3) Briefly, following chain elongation 5,6-carboxyfluorescein was activated with HATU and coupled to the resin-bound peptide at 65 °C for 1 h to yield the fluorescein-labelled peptides. […] Fluorescence polarization measurements were carried out in 384-well plates (Black OptiPlate-384F, Perkin Elmer). […] Fluorescence polarization (excitation 485±10 nm/emission 528±10 nm) was measured every 2 min for 30 min at room temperature in a Biotek H1 synergy plate reader to ensure that the signals were stable in time. Fluorescence polarization at different times was averaged, normalized and fitted to a one site binding hyperbola to determine the equilibrium dissociation constant (Kd). For mutants not reaching binding saturation, the maximal binding of Gαi3 WT measured in the same experimental set was considered 100% binding for normalization.

ΔHis-Gαi3 = molecular target: T2, ΔHis-Gαi3 (Homo sapiens, UniProt P08754); assay: Fluorescence polarization peptide binding, ΔHis-Gαi3; conditions: room temperature, n=3, Supplementary Fig. 5
T2 construct: Full-length human Gαi3 (UNIPROT entry P08754) cloned in a pET24d(+) plasmid; His-tag (N, cleaved yes); made in house; host or cells: E. coli BL21 Rosetta
T2 sequence (P08754 whole entry, stated change not applied): as the sequence (P08754 whole entry K35A) above, with A35K counted along it
Procedure: Briefly, following chain elongation 5,6-carboxyfluorescein was activated with HATU and coupled to the resin-bound peptide at 65 °C for 1 h to yield the fluorescein-labelled peptides. The remaining steps were carried out as described above. Fluorescence polarization measurements were carried out in 384-well plates (Black OptiPlate-384F, Perkin Elmer). […] Fluorescence polarization (excitation 485±10 nm/emission 528±10 nm) was measured every 2 min for 30 min at room temperature in a Biotek H1 synergy plate reader to ensure that the signals were stable in time. Fluorescence polarization at different times was averaged, normalized and fitted to a one site binding hyperbola to determine the equilibrium dissociation constant (Kd). For mutants not reaching binding saturation, the maximal binding of Gαi3 WT measured in the same experimental set was considered 100% binding for normalization.

His-Gαi3 L249V = molecular target: T3, His-Gαi3 L249V (Homo sapiens, UniProt P08754, L249V); assay: Fluorescence polarization peptide binding, Gαi3 L249V; conditions: peptide 0.025 μM, pH 7.4, room temperature, mean±s.e.m., n=3–7, Fig. 4d, read-out: Kd ± SEM
T3 construct: Full-length human Gαi3 (UNIPROT entry P08754) cloned in a pET24d(+) plasmid; made in house; host or cells: E. coli BL21 Rosetta
T3 sequence (P08754 whole entry L249V): as the sequence (P08754 whole entry K35A) above, with A35K, L249V counted along it
Procedure: as §1, §2, §3

His-Gαi3 N256E = molecular target: T4, His-Gαi3 N256E (Homo sapiens, UniProt P08754, N256E); assay: Fluorescence polarization peptide binding, Gαi3 N256E; conditions: peptide 0.025 μM, pH 7.4, room temperature, mean±s.e.m., n=3–7, Fig. 4d, read-out: Kd ± SEM
T4 construct: Full-length human Gαi3 (UNIPROT entry P08754) cloned in a pET24d(+) plasmid; made in house; host or cells: E. coli BL21 Rosetta
T4 sequence (P08754 whole entry N256E): as the sequence (P08754 whole entry K35A) above, with A35K, N256E counted along it
Procedure: as §1, §2, §3

His-Gαi3 F215A = molecular target: T5, His-Gαi3 F215A (Homo sapiens, UniProt P08754, F215A); assay: Fluorescence polarization peptide binding, Gαi3 F215A; conditions: peptide 0.025 μM, pH 7.4, room temperature, mean±s.e.m., n=3–7, Fig. 4d, read-out: Kd ± SEM
T5 construct: Full-length human Gαi3 (UNIPROT entry P08754) cloned in a pET24d(+) plasmid; made in house; host or cells: E. coli BL21 Rosetta
T5 sequence (P08754 whole entry F215A): as the sequence (P08754 whole entry K35A) above, with A35K, F215A counted along it
Procedure: as §1, §2, §3

His-Gαi3 W211A = molecular target: T6, His-Gαi3 W211A (Homo sapiens, UniProt P08754, W211A); assay: Fluorescence polarization peptide binding, Gαi3 W211A; conditions: peptide 0.025 μM, pH 7.4, room temperature, mean±s.e.m., n=3–7, Fig. 4d, read-out: Kd ± SEM
T6 construct: Full-length human Gαi3 (UNIPROT entry P08754) cloned in a pET24d(+) plasmid; made in house; host or cells: E. coli BL21 Rosetta
T6 sequence (P08754 whole entry W211A): as the sequence (P08754 whole entry K35A) above, with A35K, W211A counted along it
Procedure: as §1, §2, §3

His-Gαi3 W211A and F215A = assay: Gβγ-binding pull-down assay; design: species or system human; conditions: bovine Gβ1γ1 100 nM, Gαi3 50 nM, 4 h, 4 °C, 30 μM GDP
Procedure: Gβγ was purified from bovine retinas, which are primarily composed of Gβ1γ1 by purification of holotransducin from rod outer segment (ROS) membranes isolated from dark-adapted bovine followed by separation of the Gβ1γ1 complex from the α-subunit of transducin on a Hitrap Blue-sepharose column (GE healthcare), and further purification by anion exchange chromatography using a Hitrap-Q column.
For binding assays, Gβ1γ1 (100 nM final) was incubated in the absence or presence of human His-tagged Gαi3 WT or mutants (50 nM final) in 250 μl of binding buffer (50 mM Tris-HCl, pH 7.4, 100 mM NaCl, 0.4% (v:v) NP-40, 5 mM MgCl2, 10 mM imidazole, 0.1 mg ml^−1 BSA, 1 mM DTT and 30 μM GDP) for 4 h at 4 °C with rotation. A volume of 25 μl of BSA-blocked HisPur cobalt resin (Pierce) were added to each tube and the incubation continued for 90 min. Beads were washed four times with 1 ml of binding buffer and resin-bound proteins eluted by adding Laemmli sample buffer supplemented with 100 mM EDTA and boiling for 5 min. […]

Gαi3-GDP = assay: NMR perturbation of Gαi3-GDP backbone amide signals; type: binding, human; conditions: fivefold molar excess of peptide, 30 °C, pH 7.0
Procedure: Full-length human Gαi3 (UNIPROT entry P08754) cloned in a pET24d(+) plasmid (a generous gift from Ichio Shimada, University of Tokyo) was used to purify the protein used in NMR experiments. For this, protein expression was induced in BL21 Rosetta (Life Technologies) cell cultures with 1 mM IPTG for 16 h at 23 °C in a modified M9 minimal medium containing 1 g l^−1 15N-NH4Cl, 2 g l^−1 2H-^13C-glucose and 1 g l^−1 of ^2H-^13C-^15N Celtone base powder in ^2H2O with 30 mg l^−1 kanamycin and 34 mg l^−1 chloramphenicol. The pelleted cells were lysed by sonication in 50 mM Tris, 200 mM NaCl, 100 mM KCl and 1 mM DTT at pH 8.0, and the supernatant was loaded on a Ni^2+-loaded His-Trap FF column. […]
All NMR data were measured on a Bruker Avance III 800 MHz (18.8 T) spectrometer equipped with a cryogenically cooled triple resonance z-gradient probe, processed with Topspin (Bruker) and analysed with Sparky. […] Gαi3 spectra were recorded at 30 °C on ^2H-^13C-^15N–Gαi3 samples with a threefold molar excess of GDP in 10 mM HEPES (pH 7.0) with 10 mM MgCl2, 5 mm DTT, 0.01% NaN3 and 5% ^2H2O. […] The assignment of Gαi3 resonances in the presence of a fivefold molar excess of GIV fragment 1,671–1,696 was achieved from the joint analysis of an HNCO and ^1H–^15N TROSY spectra recorded along a titration (at molar ratios 1:0, 1:0.2,1:0.5, 1:1, 1:2 and 1:5). […]

[1] = tested on: His-Gαi3 mutants in complex with Gβ1γ1; assay: Steady-state GTPase assay with rhodopsin; type: biochemical, human; conditions: rhodopsin 20 nM, Gαi3/Gβ1γ1 100/200 nM, 30 °C
Procedure: Steady-state GTPase assays with rhodopsin
ROS membranes washed with urea were prepared as described earlier and used as the source of rhodopsin[67]. Human His-tagged Gαi3 WT and mutants (20–25 μM) were incubated overnight at 4 °C with twofold excess Gβ1γ1 in 20 mM Tris-HCl, pH 7.4, 20 mM NaCl, 1 mM MgCl2, 1 mM DTT, 10 μM GDP and 5% (v/v) glycerol. Bovine rhodopsin was freshly solubilized from urea-washed ROS membranes in assay buffer (20 mM HEPES, pH 7.5, 100 mM NaCl, 5 mM MgCl2, 1 mM DTT and 0.01% (w:v) dodecylmaltoside) for each experiment. Gαi3/Gβ1γ1 (100/200 nM final) and rhodopsin (20 nM final) were incubated in ice for 30 min under ambient light in assay buffer. Reactions were initiated at 30 °C by adding an equal volume of assay buffer containing 1 μM [γ-^32P]GTP (∼50 c.p.m. fmol^−1) and stopped in duplicates by mixing 25 μl of the reaction with 975 μl of ice-cold 5% (w/v) activated charcoal in 20 mM H3PO4, pH 3. Samples were then centrifuged for 10 min at 10,000g, and 500 μl of the resultant supernatant were scintillation-counted to quantify the amount of [^32P]Pi released. Background [^32P]Pi detected at 15 min in the absence of G protein was subtracted from each reaction (<5% of the counts detected in the presence of G proteins). Results were expressed as per cent of the activity of Gi3 WT without rhodopsin.

Molecule: Gβγ: retinal Gβγ (Gβ1γ1) purified from bovine retinas
binding to Gαi3 W211A and F215A (His-Gαi3 W211A and F215A): abolished

Molecule: KTGSPGSEVVTLQQFLEESNKLTSVQ [GIVpept, peptide corresponding to GIV amino acids 1,671–1,696]
overall decrease in signal intensities (Gαi3-GDP): ~15%

Molecule: rhodopsin: bovine rhodopsin solubilized from urea-washed ROS membranes
activation of Gαi3 mutants ([1]; K35A, L249H, S252D and N256E): activated efficiently
activation of Gαi3 ΔC9 ([1]; ΔC9): completely abolished

Other lines, results leading:

Kd (His-Gαi3 K35A): > 10 µM
affinity for ΔHis-Gαi3 compared with His-Gαi3 (ΔHis-Gαi3): the same affinity
Kd (His-Gαi3 L249V): 1.37 ± 0.199 µM
Kd (His-Gαi3 N256E): > 20 µM
Kd (His-Gαi3 F215A): > 10 µM
Kd (His-Gαi3 W211A): > 20 µM
Molecule: CC[C@H](C)[C@H](NC(=O)[C@H](CCC(N)=O)NC(=O)[C@@H](NC(=O)[C@H](CO)NC(=O)[C@@H](NC(=O)[C@H](CC(C)C)NC(=O)[C@H](CCCCN)NC(=O)[C@H](CC(N)=O)NC(=O)[C@H](CO)NC(=O)[C@H](CCC(=O)O)NC(=O)[C@H](CCC(=O)O)NC(=O)[C@H](CC(C)C)NC(=O)[C@H](Cc1ccccc1)NC(=O)[C@H](CCC(N)=O)NC(=O)[C@H](CCC(N)=O)NC(=O)[C@H](CC(C)C)NC(=O)[C@@H](NC(=O)[C@@H](NC(=O)[C@@H](NC(=O)[C@H](CCC(=O)O)NC(=O)[C@H](CO)NC(=O)CNC(=O)[C@@H]1CCCN1C(=O)[C@H](CO)NC(=O)CNC(=O)[C@@H](NC(=O)[C@H](CCCCN)NC(=O)c1ccc2c(c1)C1(OC2=O)c2ccc(O)cc2Oc2cc(O)ccc21)[C@@H](C)O)C(C)C)C(C)C)[C@@H](C)O)[C@@H](C)O)C(C)C)C(=O)N[C@@H](CCCCN)C(=O)N[C@@H](CO)C(=O)N[C@@H](CO)C(=O)N[C@@H](CO)C(N)=O [GIV]

Kd (His-Gαi3 L249V): 0.084 ± 0.009 µM
Molecule: CC[C@H](C)[C@H](NC(=O)[C@H](CC(C)C)NC(=O)[C@H](CCC(=O)O)NC(=O)[C@H](Cc1ccccc1)NC(=O)[C@H](Cc1ccccc1)NC(=O)[C@H](CCC(=O)O)NC(=O)[C@H](CCC(=O)O)NC(=O)[C@H](C)NC(=O)[C@H](CCC(=O)O)NC(=O)[C@H](CC(=O)O)NC(=O)c1ccc2c(c1)C1(OC2=O)c2ccc(O)cc2Oc2cc(O)ccc21)C(=O)N[C@@H](CO)C(=O)N[C@@H](CCCCN)C(=O)N[C@@H](C)C(=O)N[C@@H](CCC(N)=O)C(=O)N[C@@H](CO)C(=O)N[C@@H](CC(N)=O)C(=O)N[C@@H](CCCNC(=N)N)C(=O)N[C@@H](C)C(=O)N[C@@H](CC(=O)O)C(=O)N[C@@H](CC(=O)O)C(=O)N[C@@H](CCC(N)=O)C(=O)N[C@@H](CCCNC(=N)N)C(=O)NCC(=O)N[C@@H](CC(C)C)C(=O)N[C@@H](CC(C)C)C(=O)N[C@@H](CCCNC(=N)N)C(=O)N[C@@H](CCCCN)C(=O)N[C@@H](CCC(=O)O)C(=O)N[C@@H](CC(=O)O)C(=O)N[C@@H](CC(C)C)C(=O)N[C@H](C(=O)N[C@@H](CC(C)C)C(=O)N1CCC[C@H]1C(=O)N[C@@H](CCC(=O)O)C(=O)N[C@@H](Cc1ccccc1)C(=O)N[C@@H](CC(C)C)C(=O)N[C@@H](CCCNC(=N)N)C(N)=O)C(C)C [RGS12, reference compound] (6FAM-DEAEEFFELISKAQSNRADDQRGLLRKEDLVLPEFLR-NH2)
